Source: patent EP4570802A1, “SALT TYPE AND CRYSTAL FORM OF BENZAZEPINE FUSED RING COMPOUND AND USE THEREOF” (SHANGHAI JEYOU PHARMACEUTICAL CO., LTD., priority 2022, dated 2024)
In brackets after ≈: the same amount, converted by molar mass. Structures can show the parent of a compound that is named as a salt. Where two headings read alike, the source gives them in different places.

How the values were obtained:
Format in all cases: physicochemical
[1] = Stability study (solid state, XRPD characterization after 7 days and 15 days); settings: for Results after 7 days: XRPD characterization after 7 days; for Results after 15 days: XRPD characterization after 15 days
Method: Approximately 20 mg of sample was weighed into a weighing bottle and exposed to high temperature (60°C), high humidity (25°C/92.5% RH), light (25°C/4500 Lux), and accelerated (40°C/75% RH) conditions, followed by sampling for XRPD characterization after 7 days and 15 days.
Samples were taken for XRPD characterization after 7 days and 15 days. 62 to 65. […]

[2] = Solubility test in biological media (dynamic solubility in FaSSIF, FeSSIF, FaSSGF; pH of the 24-hour supernatant; XRPD of remaining solid); settings: for Final pH: 24-hour supernatant; for Solubility (mg/mL) 0.5 h: 30 min; for Solubility (mg/mL) 2h: 120 min; for Solubility (mg/mL) 24 h: 1440 min; for XRPD for remaining solid: remaining solid after 24 hours; for solubility at 0.5 h: read-out: Solubility (mg/mL) 0.5 h; for solubility at 2 h: read-out: Solubility (mg/mL) 2h; for solubility at 24 h: read-out: Solubility (mg/mL) 24 h
Method: Samples of different crystal forms were added to biological media and shaken at a constant temperature of 37°C for 24 hours, followed by sampling at 0.5 hours, 2 hours, and 24 hours, respectively, and the sampled solution was filtered using a 0.22 µm hydrophilic filter membrane. Some of the samples with higher concentrations were appropriately diluted with a diluent, and the signal peak area of the solution was measured by HPLC. Finally, the concentration of the compound in the solution was calculated based on the peak area, the HPLC standard curve of the starting material, and the dilution factor. In addition, the 24-hour supernatant was tested for pH, and the remaining solid was subjected to XRPD testing.

[3] = Dynamic vapor sorption analysis (DVS)
Method: Dynamic vapor sorption analysis was performed using DVS Intrinsic (SMS, UK). The test was performed in gradient mode with a humidity change of 50%-95%-0%-50%, and 10% humidity change per gradient in the range of 0% to 90%. The gradient endpoint was determined by dm/dt, and was defined as when dm/dt was less than 0.002% and maintained for 10 minutes. After the test was completed, the sample was analyzed by XRPD to confirm whether the solid morphology had changed.

[4] = FaSSGF, listed as Crystal form A of maleate
[5] = FaSSGF, pH 1.6, 37°C, listed as Crystal form A of maleate
[6] = FaSSIF, listed as Crystal form A of maleate
[7] = FaSSIF, pH 6.5, 37°C, listed as Crystal form A of maleate
[8] = FeSSIF, listed as Crystal form A of maleate
[9] = FeSSIF, pH 5.0-5.1, 37°C, listed as Crystal form A of maleate
[10] = FaSSGF, listed as Crystal form C of fumarate
[11] = FaSSIF, listed as Crystal form C of fumarate
[12] = FeSSIF, listed as Crystal form C of fumarate
[13] = FaSSGF, listed as Crystal form N
[14] = FaSSGF, pH 1.6, 37°C, listed as Crystal form N
[15] = FaSSIF, listed as Crystal form N
[16] = FaSSIF, pH 6.5, 37°C, listed as Crystal form N
[17] = FeSSIF, listed as Crystal form N
[18] = FeSSIF, pH 5.0-5.1, 37°C, listed as Crystal form N
[19] = Water, listed as Crystal form N
[20] = FaSSGF, listed as Crystal form S
[21] = FaSSGF, pH 1.6, 37°C, listed as Crystal form S
[22] = FaSSIF, listed as Crystal form S
[23] = FaSSIF, pH 6.5, 37°C, listed as Crystal form S
[24] = FeSSIF, listed as Crystal form S
[25] = FeSSIF, pH 5.0-5.1, 37°C, listed as Crystal form S
[26] = Water, listed as Crystal form S

O=C(Nc1ccc(C(=O)N2CC[C@@H]3CCN[C@H]3c3cc(Cl)ccc32)cn1)c1ccccc1C(F)(F)F [crystal form A of maleate]
stability (crystal transformation by XRPD) ([1]; high temperature (60°C), high humidity (25°C/92.5% RH), light (25°C/4500 Lux) and accelerated (40°C/75% RH) conditions, 15 days): stable
Final pH [2, 4]: 1.7
Solubility (mg/mL) 0.5 h [2, 5]: 1.44 mg/mL
Solubility (mg/mL) 2h [2, 5]: 1.43 mg/mL
Solubility (mg/mL) 24 h [2, 5]: 1.02 mg/mL
XRPD for remaining solid [2, 4]: Crystal form A of maleate + new peak
Final pH [2, 6]: 6.1
Solubility (mg/mL) 0.5 h [2, 7]: 0.66 mg/mL
Solubility (mg/mL) 2h [2, 7]: 0.69 mg/mL
Solubility (mg/mL) 24 h [2, 7]: 0.57 mg/mL
XRPD for remaining solid [2, 6]: Obvious change
Final pH [2, 8]: 5.0
Solubility (mg/mL) 0.5 h [2, 9]: 1.08 mg/mL
Solubility (mg/mL) 2h [2, 9]: 1.28 mg/mL
Solubility (mg/mL) 24 h [2, 9]: 0.31 mg/mL
XRPD for remaining solid [2, 8]: Obvious change
weight loss ([3]; DVS, at 0% RH): 0.24%
weight gain ([3]; DVS, at 80% RH): 0.09%
weight gain ([3]; DVS, at 95% RH): 0.23%
hygroscopicity ([3]; conclusion from DVS): almost no hygroscopicity
XRPD after DVS testing ([3]; solid form after DVS testing): no morphological change

O=C(Nc1ccc(C(=O)N2CC[C@@H]3CCN[C@H]3c3cc(Cl)ccc32)cn1)c1ccccc1C(F)(F)F [crystal form C of fumarate]
Final pH [2, 10]: 1.7
solubility at 0.5 h ([2]; FaSSGF, pH 1.6, 37°C): 0.65 mg/mL
solubility at 2 h ([2]; FaSSGF, pH 1.6, 37°C): 0.7 mg/mL
solubility at 24 h ([2]; FaSSGF, pH 1.6, 37°C): 0.71 mg/mL
XRPD for remaining solid [2, 10]: Obvious change
Final pH [2, 11]: 6.1
solubility at 0.5 h ([2]; FaSSIF, pH 6.5, 37°C): 0.38 mg/mL
solubility at 2 h ([2]; FaSSIF, pH 6.5, 37°C): 0.35 mg/mL
solubility at 24 h ([2]; FaSSIF, pH 6.5, 37°C): 0.28 mg/mL
XRPD for remaining solid [2, 11]: Crystal form C of fumarate + new peak
Final pH [2, 12]: 5.0
solubility at 0.5 h ([2]; FeSSIF, pH 5.0-5.1, 37°C): 0.66 mg/mL
solubility at 2 h ([2]; FeSSIF, pH 5.0-5.1, 37°C): 0.74 mg/mL
solubility at 24 h ([2]; FeSSIF, pH 5.0-5.1, 37°C): 0.68 mg/mL
XRPD for remaining solid [2, 12]: Crystal form C of fumarate + new peak

O=C(Nc1ccc(C(=O)N2CC[C@@H]3CCN[C@H]3c3cc(Cl)ccc32)cn1)c1ccccc1C(F)(F)F [crystal form N]
Results after 7 days ([1]; Accelerated, 40°C/75% RH): No change
Results after 15 days ([1]; Accelerated, 40°C/75% RH): No change
Results after 7 days ([1]; High humidity, 25°C/92.5% RH): No change
Results after 15 days ([1]; High humidity, 25°C/92.5% RH): No change
Results after 7 days ([1]; Light, 25°C/4500 Lux): No change
Results after 15 days ([1]; Light, 25°C/4500 Lux): No change
Final pH [2, 13]: 2.0
Solubility (mg/mL) 0.5 h [2, 14]: > 7.61 mg/mL
Solubility (mg/mL) 2h [2, 14]: > 7.89 mg/mL
Solubility (mg/mL) 24 h [2, 14]: > 7.98 mg/mL
XRPD for remaining solid [2, 13]: No solid
Final pH [2, 15]: 6.5
Solubility (mg/mL) 0.5 h [2, 16]: 0.06 mg/mL (≈ 117 µM)
Solubility (mg/mL) 2h [2, 16]: 0.07 mg/mL (≈ 136 µM)
Solubility (mg/mL) 24 h [2, 16]: 0.08 mg/mL (≈ 155 µM)
XRPD for remaining solid [2, 15]: Crystal form N
Final pH [2, 17]: 5.1
Solubility (mg/mL) 0.5 h [2, 18]: 0.80 mg/mL (≈ 1550 µM)
Solubility (mg/mL) 2h [2, 18]: 0.97 mg/mL (≈ 1880 µM)
Solubility (mg/mL) 24 h [2, 18]: 0.94 mg/mL (≈ 1830 µM)
XRPD for remaining solid [2, 17]: Crystal form N
Final pH [2, 19]: 7.5
Solubility (mg/mL) 2h ([2]; Water, 37°C, listed as Crystal form N): 0.011 mg/mL (≈ 21.4 µM)
XRPD for remaining solid [2, 19]: Crystal form N
solubility at 0.5 h ([2]; water, 37°C): 0.004 mg/mL (≈ 7.77 µM)
solubility at 24 h ([2]; water, 37°C): 0.004 mg/mL (≈ 7.77 µM)

O=C(Nc1ccc(C(=O)N2CC[C@@H]3CCN[C@H]3c3cc(Cl)ccc32)cn1)c1ccccc1C(F)(F)F [crystal form S]
Results after 7 days ([1]; High temperature, 60°C): No change
Results after 15 days ([1]; High temperature, 60°C): No change
Final pH [2, 20]: 2.0
Solubility (mg/mL) 0.5 h [2, 21]: > 7.19 mg/mL
Solubility (mg/mL) 2h [2, 21]: > 7.35 mg/mL
Solubility (mg/mL) 24 h [2, 21]: 2.15 mg/mL (≈ 4180 µM)
XRPD for remaining solid [2, 20]: Amorphous*
Final pH [2, 22]: 6.5
Solubility (mg/mL) 0.5 h [2, 23]: 0.03 mg/mL (≈ 58.3 µM)
Solubility (mg/mL) 2h [2, 23]: 0.04 mg/mL (≈ 77.7 µM)
Solubility (mg/mL) 24 h [2, 23]: 0.04 mg/mL (≈ 77.7 µM)
XRPD for remaining solid [2, 22]: Crystal form S
Final pH [2, 24]: 5.1
Solubility (mg/mL) 0.5 h [2, 25]: 0.40 mg/mL (≈ 777 µM)
Solubility (mg/mL) 2h [2, 25]: 0.44 mg/mL (≈ 854 µM)
Solubility (mg/mL) 24 h [2, 25]: 0.43 mg/mL (≈ 835 µM)
XRPD for remaining solid [2, 24]: Crystal form S
Final pH [2, 26]: 7.4
Solubility (mg/mL) 2h ([2]; Water, 37°C, listed as Crystal form S): 0.001 mg/mL (≈ 1.94 µM)
XRPD for remaining solid [2, 26]: Crystal form S
